Experimental data reported in patent publication US11197862B2, “Methods of preventing toxicity of platinum drugs” (XOMICS BIOPHARMA, INC., priority 2015, dated 2021).

Tested on: Balb/c mice exposed to acute treatment with Oxaliplatin
Experiment: Dynamic test (mechanical pain threshold) after a single oxaliplatin administration
Type: in vivo, mouse
Details: 24 hours after single OXA 3.5 mg/kg iv, DTG 4 mg/kg ip 1 hour before, CPC 4 mg/kg iv co-administered
Procedure: OXA vehicle, OXA, CPC, DTG, DTG+OXA and CPC+OXA were administered once time. In the group co-administered with OXA and DTG. DTG was injected intraperitoneally 1 hour before the administration of OXA. In the group co-administered with OXA and CPC, CPC was co-administered with OXA intravenously. Mechanical allodynia and cold sensory threshold (dynamic test and cold plate test) were performed 24 and 48 hours after the treatment, respectively, using the methods described in EXAMPLE 15 Plasma Sample Collection

C[C@@H]1CCO[C@H]2Cn3cc(C(=O)NCc4ccc(F)cc4F)c(=O)c(O)c3C(=O)N12 [Dolutegravir]
Mechanical Pain Threshold (MPT), mechanical hypersensitivity: effective on reducing mechanical hypersensitivity
Mechanical Pain Threshold (MPT), mechanical hypersensitivity (listed as DTG): nearly completely alleviated mechanical hypersensitivity
